Target: T1, hM3 muscarinic receptor subtype (Homo sapiens, UniProt P20309)
T1 construct: expressed in transfected cells; crude membranes
Assay: Radioligand binding assay ([3H]-NMS displacement), CHO cell membranes
Conditions: [3H]-NMS at 1 nM, CHO cell membranes expressing hM3, 60 minutes at 37° C.; read-out: Ki value for the M3 muscarinic receptor subtype
Protocol: A. Membrane Preparation from Cells Expressing hM1, hM2, hM3 and hM4 Muscarinic Receptor Subtypes
CHO (Chinese hamster ovary) cell lines stably expressing cloned human hM1, hM2, hM3 and hM4 muscarinic receptor subtypes, respectively, were grown to near confluency in medium consisting of HAM's F-12 supplemented with 10% FBS (Fetal Bovine Serum) and 250 μg/mL Geneticin. The cells were grown in a 5% CO2, 37° C. incubator and lifted with 2 mM EDTA in dPBS. Cells were collected by 5 minute centrifugation at 650×g, and cell pellets were either stored frozen at −80° C. or membranes were prepared immediately. […] The protein concentration of the membrane suspension was determined by the method described in Lowry, O. et al., Journal of Biochemistry 193:265 (1951). […]
Radioligand binding assays were performed in 96-well microtiter plates in a total assay volume of 100 μL. […] Filter plates were rinsed three times with wash buffer (10 mM HEPES) to remove unbound radioactivity. […] The plates were then counted in a PerkinElmer Topcount liquid scintillation counter (PerkinElmer Inc., Wellesley, Mass.). Binding data were analyzed by nonlinear regression analysis with the GraphPad Prism Software package (GraphPad Software, Inc., San Diego, Calif.) using the one-site competition model. […]

T1 sequence (P20309 whole entry): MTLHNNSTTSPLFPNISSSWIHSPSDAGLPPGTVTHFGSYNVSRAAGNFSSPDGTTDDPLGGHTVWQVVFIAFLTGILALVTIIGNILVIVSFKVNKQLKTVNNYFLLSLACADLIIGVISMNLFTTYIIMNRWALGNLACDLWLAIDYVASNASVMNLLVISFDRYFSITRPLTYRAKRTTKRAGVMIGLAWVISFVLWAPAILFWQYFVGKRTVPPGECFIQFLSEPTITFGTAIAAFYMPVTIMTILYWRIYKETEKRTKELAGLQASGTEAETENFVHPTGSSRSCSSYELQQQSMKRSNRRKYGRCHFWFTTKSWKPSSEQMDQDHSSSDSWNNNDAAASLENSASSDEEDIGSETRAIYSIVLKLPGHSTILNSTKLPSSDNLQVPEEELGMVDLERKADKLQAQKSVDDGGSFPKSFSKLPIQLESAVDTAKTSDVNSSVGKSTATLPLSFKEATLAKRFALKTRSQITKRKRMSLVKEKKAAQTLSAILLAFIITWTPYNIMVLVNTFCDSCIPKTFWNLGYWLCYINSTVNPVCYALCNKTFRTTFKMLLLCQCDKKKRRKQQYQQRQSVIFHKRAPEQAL

Ki: < 5 nM
Compound: NC(=O)C1CCN(CCCCCNC(=O)CCN2CCC(OC(=O)Nc3ccccc3-c3ccccc3)CC2)CC1 [Example 1, Biphenyl-2-ylcarbamic Acid 1-{2-[5-(4-Carbamoylpiperidin-1-yl)pentylcarbamoyl]ethyl}piperidin-4-yl Ester]
